Measured values from patent US10925874B2, “Substituted pyrazolopyrimidines as glucocerebrosidase activators” (The United States of America, as Represented by the …, priority 2010, dated 2021).
Where “and” joins values, the source holds several entries; their conditions need not be identical. Equal entries are not always repeated.

Target: T1, N370S glucocerebrosidase from human spleen homogenate (Homo sapiens, UniProt P04062, N409S)
T1 construct: N370S glucocerebrosidase from human spleen homogenate as the enzyme preparation; from tissue; host or cells: human spleen homogenate
T1 sequence (P04062 40-536 N409S): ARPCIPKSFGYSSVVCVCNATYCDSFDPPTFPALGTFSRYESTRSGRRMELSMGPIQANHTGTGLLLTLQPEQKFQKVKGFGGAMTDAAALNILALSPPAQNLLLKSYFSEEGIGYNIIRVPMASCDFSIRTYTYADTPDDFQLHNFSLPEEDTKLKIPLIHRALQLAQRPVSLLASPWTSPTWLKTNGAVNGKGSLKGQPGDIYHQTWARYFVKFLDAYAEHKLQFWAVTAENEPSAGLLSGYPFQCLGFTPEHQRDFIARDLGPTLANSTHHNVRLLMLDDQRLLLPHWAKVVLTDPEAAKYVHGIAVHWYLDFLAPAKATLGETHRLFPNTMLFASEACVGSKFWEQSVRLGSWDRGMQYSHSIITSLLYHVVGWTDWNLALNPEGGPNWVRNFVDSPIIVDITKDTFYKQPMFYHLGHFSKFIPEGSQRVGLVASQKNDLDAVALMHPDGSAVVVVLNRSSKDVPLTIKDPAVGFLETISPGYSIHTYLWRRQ
Assay: qHTS fluorogenic enzyme assay for activators of N370S glucocerebrosidase (4-methylumbelliferyl-beta-D-glucopyranoside substrate)
Type: biochemical
Conditions: pH 5.0, 37° C. 40 min
Excerpt: qHTS Assay for Inhibitors and Activators of N370S glucocerebrosidase as a Potential Chaperone Treatment of Gaucher Disease: Primary Screen Confirmation
This is a fluorogenic enzyme assay with 4-methylumbelliferyl-beta-D-glucopyranoside as the substrate and N370S glucocerebrosidase from human spleen homogenate as the enzyme preparation. Upon the hydrolysis of this fluorogenic substrate, the resulting product, […] which can be detected by a standard fluorescence plate reader. Data were normalized to the controls for basal activity (without enzyme) and 100% activity (with enzyme). The AC50 values were determined from concentration-response data modeled with the standard Hill equation.
Human spleen homogenate is prepared as follows by homogenizing spleen with assay buffer containing 50 mM citric acid (titrated with potassium phosphate to pH 5.0), 100 mM potassium chloride, 10 mM sodium chloride, 1 mM magnesium chloride, 0.01% Tween-20. The protein concentration of the human spleen homogenate is approximated 1.35 ug/ul.
The assay is performed in 1536 well plates according to the following protocol. (1) 2 ul spleen homogenate ([…] final) is added to each well. (2) 23 nL test compound in DMSO solution is added to each well. The final concentration of compound in the test well is 0.5 nM to 58 uM. (3) 2 ul of substrate (1 mM final) are added to each well. (4) Incubate assay plates at 37° C. for 40 min. (5) Add 2 ul stop solution (1M NaOH and 1M Glycine mixture, pH 10) to each well. (6) Detect the assay plate in a ViewLux plate reader (PerkinElmer) using 365 nm excitation with emission at 440 nm.

SMILES	AC50
O=C(Nc1ccccc1Sc1ccccc1)c1cnn2c1NC(=C1CC1)C=C2C(F)F [NCGC00182186-01, 5-cyclopropylidene-7-(difluoromethyl)-N-(2-(phenylthio)phenyl)-4,5-dihydropyrazolo[1,5-a]pyrimidine-3-carboxamide]	13 µM and 7.08 µM
O=C(Nc1ccccc1Sc1ccccc1)c1cnn2c1NC(=C1CC1)C=C2C(F)(F)F [NCGC00182190-01, 5-cyclopropylidene-N-(2-(phenylthio)phenyl)-7-(trifluoromethyl)-4,5-dihydropyrazolo[1,5-a]pyrimidine-3-carboxamide]	14.1 µM
Cc1cc(C)n2ncc(C(=O)Nc3ccc4c(c3)CCC4)c2n1 [NCGC00187969-01, N-(2,3-dihydro-1H-inden-5-yl)-5,7-dimethylpyrazolo[1,5-a]pyrimidine-3-carboxamide]	2.59 µM
Cc1cc(C)n2ncc(C(=O)NC3CCC(C(C)(C)C)CC3)c2n1 (centres unmarked) [NCGC00188754-01, N-(4-tert-butylcyclohexyl)-5,7-dimethylpyrazolo[1,5-a]pyrimidine-3-carboxamide]	25.9 µM
Cc1cc(C)n2ncc(C(=O)NC3CCC(C(C)(C)C)CC3)c2n1 (centres unmarked) [NCGC00188755-01, N-(4-tert-butylcyclohexyl)-5,7-dimethylpyrazolo[1,5-a]pyrimidine-3-carboxamide]	4.11 µM
Cc1cc(C)n2ncc(C(=O)Nc3ccc(Br)cc3)c2n1 [NCGC00188756-01, N-(4-bromophenyl)-5,7-dimethylpyrazolo[1,5-a]pyrimidine-3-carboxamide]	2.06 µM
Cc1cc(C)n2ncc(C(=O)Nc3cnc4ccccc4c3)c2n1 [NCGC00188762-01, 5,7-dimethyl-N-(quinolin-3-yl)pyrazolo[1,5-a]pyrimidine-3-carboxamide]	16.3 µM
Cc1cc(C)n2ncc(C(=O)Nc3ccc4ccccc4n3)c2n1 [NCGC00188763-01, 5,7-dimethyl-N-(quinolin-2-yl)pyrazolo[1,5-a]pyrimidine-3-carboxamide]	20.6 µM
Cc1cc(C)n2ncc(C(=O)Nc3ccc(C(C)(C)C)cc3)c2n1 [NCGC00188764-01, N-(4-tert-butylphenyl)-5,7-dimethylpyrazolo[1,5-a]pyrimidine-3-carboxamide]	2.31 µM
Cc1cc(C)n2ncc(C(=O)Nc3ccc(C#N)cc3)c2n1 [NCGC00188769-01, N-(4-cyanophenyl)-5,7-dimethylpyrazolo[1,5-a]pyrimidine-3-carboxamide]	20.6 µM
Cc1cc(C)n2ncc(C(=O)Nc3ccccc3C)c2n1 [NCGC00188770-01, 5,7-dimethyl-N-o-tolylpyrazolo[1,5-a]pyrimidine-3-carboxamide]	16.3 µM
Cc1cccc(NC(=O)c2cnn3c(C)cc(C)nc23)c1 [NCGC00188771-01, 5,7-dimethyl-N-m-tolylpyrazolo[1,5-a]pyrimidine-3-carboxamide]	6.51 µM
Cc1ccc(NC(=O)c2cnn3c(C)cc(C)nc23)cc1 [NCGC00188772-01, 5,7-dimethyl-N-p-tolylpyrazolo[1,5-a]pyrimidine-3-carboxamide]	1.63 µM
Cc1cc(C)n2ncc(C(=O)Nc3ccc4c(c3)OCCO4)c2n1 [NCGC00188773-01, N-(2,3-dihydrobenzo[b][1,4]dioxin-6-yl)-5,7-dimethylpyrazolo[1,5-a]pyrimidine-3-carboxamide]	10.3 µM
Cc1ccc(NC(=O)c2cnn3c(C)cc(C)nc23)c(C)c1 [NCGC00188778-01, N-(2,4-dimethylphenyl)-5,7-dimethylpyrazolo[1,5-a]pyrimidine-3-carboxamide]	13 µM
Cc1ccc(NC(=O)c2cnn3c(C)cc(C)nc23)c(F)c1 [NCGC00188779-01, N-(2-fluoro-4-methylphenyl)-5,7-dimethylpyrazolo[1,5-a]pyrimidine-3-carboxamide]	11.6 µM

Next, values leading:

AC50	SMILES
2.51 µM	O=C(Nc1ccc(Br)cc1F)c1cnn2c1NC(=C1CC1)C=C2C(F)F [NCGC00182179-01, N-(4-bromo-2-fluorophenyl)-5-cyclopropylidene-7-(difluoromethyl)-4,5-dihydropyrazolo[1,5-a]pyrimidine-3-carboxamide]
11.2 µM	CC(C)(C)C1CCC(NC(=O)c2cnn3c2NC(=C2CC2)C=C3C(F)F)CC1 (centres unmarked) [NCGC00182182-01, N-(4-tet-butylcyclohexyl)-5-cyclopropylidene-7-(difluoromethyl)-4,5-dihydropyrazolo[1,5-a]pyrimidine-3-carboxamide]
12.6 µM	O=C(Nc1cccc(Nc2ccccc2)c1)c1cnn2c1NC(=C1CC1)C=C2C(F)F [NCGC00182185-01, 5-cyclopropylidene-7-(difluoromethyl)-N-(3-(phenylamino)phenyl)-4,5-dihydropyrazolo[1,5-a]pyrimidine-3-carboxamide]
12.6 µM	O=C(Nc1ccccc1Br)c1cnn2c1NC(=C1CC1)C=C2C(F)F [NCGC00182188-01, N-(2-bromophenyl)-5-cyclopropylidene-7-(difluoromethyl)-4,5-dihydropyrazolo[1,5-a]pyrimidine-3-carboxamide]
15.8 µM	C=C1C=C(C)n2ncc(C(=O)NCCCCCC)c2N1 [NCGC00182197-01, N-hexyl-7-methyl-5-methylene-4,5-dihydropyrazolo[1,5-a]pyrimidine-3-carboxamide]
15.8 µM	C=C1C=C(C)n2ncc(C(=O)Nc3ccc(C)cn3)c2N1 [NCGC00182198-01, 7-methyl-5-methylene-N-(5-methylpyridin-2-yl)-4,5-dihydropyrazolo[1,5-a]pyrimidine-3-carboxamide]
18.3 µM	Cc1cc(C)n2ncc(C(=O)NCc3cccc(Cl)c3)c2n1 [NCGC00187965-01, N-(3-chlorobenzyl)-5,7-dimethylpyrazolo[1,5-a]pyrimidine-3-carboxamide]
6.18 µM	Cc1cc(C)n2ncc(C(=O)Nc3cc(F)cc(F)c3)c2n1 [NCGC00187967-01, N-(3,5-difluorophenyl)-5,7-dimethylpyrazolo[1,5-a]pyrimidine-3-carboxamide]
3.26 µM	CCc1ccc(NC(=O)c2cnn3c(C)cc(C)nc23)cc1 [NCGC00187970-01, N-(4-ethylphenyl)-5,7-dimethylpyrazolo[1,5-a]pyrimidine-3-carboxamide]
10.3 µM	Cc1cc(C)n2ncc(C(=O)NC3CCCCC3)c2n1 [NCGC00187971-01, N-cyclohexyl-5,7-dimethylpyrazolo[1,5-a]pyrimidine-3-carboxamide]
8.19 µM	Cc1cc(C)n2ncc(C(=O)Nc3ccccc3)c2n1 [NCGC00187975-01, 5,7-dimethyl-N-phenylpyrazolo[1,5-a]pyrimidine-3-carboxamide]
51.7 µM	Cc1cc(C)n2ncc(C(=O)NCc3ccccc3)c2n1 [NCGC00187976-01, N-benzyl-5,7-dimethylpyrazolo[1,5-a]pyrimidine-3-carboxamide]
32.6 µM	Cc1cc(C)n2ncc(C(=O)NCC(C)C)c2n1 [NCGC00187978-01, N-isobutyl-5,7-dimethylpyrazolo[,15-a]pyrimidine-3-carboxamide]
51.7 µM	Cc1cc(C)n2ncc(C(=O)NCc3ccco3)c2n1 [NCGC00188759-01, N-(furan-2-ylmethyl)-5,7-dimethylpyrazolo[1,5-a]pyrimidine-3-carboxamide]
5.8 µM	Cc1cc(C)n2ncc(C(=O)Nc3ccc(F)cc3)c2n1 [NCGC00188766-01, N-(4-fluorophenyl)-5,7-dimethylpyrazolo[1,5-a]pyrimidine-3-carboxamide]
8.19 µM	COc1ccc(NC(=O)c2cnn3c(C)cc(C)nc23)cc1 [NCGC00188768-01, N-(4-methoxyphenyl)-5,7-dimethylpyrazolo[1,5-a]pyrimidine-3-carboxamide]
51.7 µM	COc1ccc(NC(=O)c2cnn3c(C)cc(C)nc23)c(C)c1 [NCGC00188774-01, N-(4-methoxy-2-methylphenyl)-5,7-dimethylpyrazolo[1,5-a]pyrimidine-3-carboxamide]
1.46 µM	COc1ccc(NC(=O)c2cnn3c(C)cc(C)nc23)cc1F [NCGC00188776-01, N-(3-fluoro-4-methoxyphenyl)-5,7-dimethylpyrazolo[,15-a]pyrimidine-3-carboxamide]
2.06 µM	COc1ccc(NC(=O)c2cnn3c(C)cc(C)nc23)cc1Cl [NCGC00188780-01, N-(3-chloro-4-methoxyphenyl)-5,7-dimethylpyrazolo[1,5-a]pyrimidine-3-carboxamide]
